Assay results: patent publication US20250144067A1, “PERSONALIZED STARVATION THERAPY FOR CANCER” (Faeth Therapeutics, Inc., priority 2021, published 2025)
Structures can show the parent of a compound that is named as a salt. Where two headings read alike, the source gives them in different places.

Experiments:
[1] = system: NCI-H292 lung cancer cells; test: FDA drug screening, complete media vs cholesterol-free media with simvastatin (TABLE 2); assay type: cell-based, human
[2] = system: NCI-H292 lung cancer cells; test: FDA drug screening, complete media vs cholesterol-free media without statin (TABLE 1); assay type: cell-based, human
[3] = NCI-H292 cells, FDA drug library screen, cholesterol-free media with simvastatin 0.04 μM
[4] = NCI-H292 cells, FDA drug library screen, complete media
[5] = complete media minus cholesterol-free media + simvastatin, >0 enhanced anti-cancer activity, about 0 neutral, <0 antagonist
[6] = Complete minus Cholesterol-free, greater than 0 enhanced anti-cancer activity, about 0 neutral, below 0 antagonist
[7] = NCI-H292 cells, FDA drug library screen, cholesterol-free media without statin
[8] = NCI-H292 cells, cholesterol-free media with simvastatin 0.04 μM, FDA drug library screen (TABLE 2)
[9] = NCI-H292 cells, complete media, FDA drug library screen (TABLE 2)
[10] = complete media minus cholesterol-free media + simvastatin (0.04 μM), >0 enhanced anti-cancer activity, about 0 neutral, <0 antagonist
[11] = Complete minus Cholesterol-free, >0 enhanced anti-cancer activity, about 0 neutral, <0 antagonist
[12] = NCI-H292 cells, cholesterol-free media without statin, FDA drug library screen
[13] = NCI-H292 cells, complete media, FDA drug library screen
[14] = NCI-H292 cells, FDA library drug in cholesterol-free media with simvastatin 0.04 μM
[15] = NCI-H292 cells, FDA library drug in complete media
[16] = complete media vs cholesterol-free media + simvastatin (0.04 μM), >0 enhanced anti-cancer activity, about 0 neutral, <0 antagonist
[17] = NCI-H292 cells, cholesterol-free media without statin
[18] = NCI-H292 cells, cholesterol-free media with simvastatin 0.04 μM, cell growth value in FDA drug screen
[19] = NCI-H292 cells, complete media, cell growth value in FDA drug screen
[20] = complete vs cholesterol-free media, greater than 0 enhanced anti-cancer activity, about 0 neutral, below 0 antagonists
[21] = Complete minus Cholesterol-free, greater than 0 enhanced anti-cancer activity, about 0 neutral, below 0 antagonists
[22] = NCI-H292 cells in complete media
[23] = NCI-H292 cells in cholesterol-free media without statin
[24] = complete vs cholesterol-free media, >0 enhanced anti-cancer activity, about 0 neutral, <0 antagonist
[25] = NCI-H292 cells, drug in cholesterol-free media with simvastatin 0.04 μM
[26] = NCI-H292 cells, drug in complete media

Cc1cc(C2CCCCC2)n(O)c(=O)c1 [Ciclopirox]
Cholesterol-free media + simvastatin (0.04 μM) [1, 3]: 0.2219
Complete Media [1, 4]: 0.6804
Difference [1, 5]: 0.46
Difference [2, 6]: −0.10
Cholesterol-free [2, 7]: 0.2725
Complete [2, 4]: 0.1741

O[C@H]1[C@H](O)[C@@H](O)[C@H](O)[C@@H](O)[C@H]1O [i-Inositol]
Cholesterol-free media + simvastatin (0.04 μM) [1, 8]: 0.9949
Complete Media [1, 9]: 0.9333
Difference [1, 10]: −0.06
Difference [2, 11]: −0.01
Cholesterol-free [2, 12]: 1.553
Complete [2, 13]: 1.54

CC1CCc2c(N3CCC(O)CC3)c(F)cc3c(=O)c(C(=O)O)cn1c23 (centres unmarked) [Nadifloxacin]
Cholesterol-free media + simvastatin (0.04 μM) [1, 14]: 1.859
Complete Media [1, 15]: 1.054
Difference [1, 16]: −0.80
Difference [2, 11]: −0.03
Cholesterol-free [2, 12]: 0.9891
Complete [2, 13]: 0.9558

O=C1CN2Cc3c(ccc(Cl)c3Cl)N=C2N1 [Anagrelide (hydrochloride)]
Cholesterol-free media + simvastatin (0.04 μM) [1, 14]: 1.221
Complete Media [1, 15]: 0.9483
Difference [1, 16]: −0.27
Difference [2, 11]: −0.26
Cholesterol-free [2, 17]: 0.988
Complete ([2]; NCI-H292 cells, complete media): 0.7326

CCC(=O)OCC(=O)[C@@]1(OC(=O)CC)[C@@H](C)C[C@H]2[C@@H]3CCC4=CC(=O)C=C[C@]4(C)[C@@]3(F)[C@@H](O)C[C@@]21C [Betamethasone dipropionate]
Cholesterol-free media + simvastatin (0.04 μM) [1, 18]: 0.5238
Complete Media [1, 19]: 0.6181
Difference [1, 5]: 0.09
Difference [2, 11]: −0.28
Cholesterol-free [2, 17]: 0.9149
Complete ([2]; NCI-H292 cells, complete media): 0.6317

COc1ccc2cc([C@H](C)C(=O)O)ccc2c1 [Naproxen (sodium)]
Cholesterol-free media + simvastatin (0.04 μM) [1, 3]: 1.198
Complete Media [1, 4]: 1.058
Difference [1, 16]: −0.14
Cholesterol-free [2, 17]: 1.162
Complete ([2]; NCI-H292 cells, complete media): 0.8469
Difference [2, 20]: −0.32

NC(=O)CN1CC(O)CC1=O (centres unmarked) [Oxiracetam]
Cholesterol-free media + simvastatin (0.04 μM) [1, 14]: 1.234
Complete Media [1, 15]: 0.9456
Difference [1, 16]: −0.29
Difference [2, 11]: −0.22
Cholesterol-free [2, 17]: 1.104
Complete ([2]; NCI-H292 cells, complete media): 0.8826

CCc1cc(/C(C)=N/OCc2ccc(C3CCCCC3)c(C(F)(F)F)c2)ccc1CN1CC(C(=O)O)C1 [Siponimod]
Cholesterol-free media + simvastatin (0.04 μM) [1, 14]: 1.121
Complete Media [1, 15]: 0.7701
Difference [1, 16]: −0.35
Difference [2, 11]: −0.01
Cholesterol-free [2, 12]: 0.9324
Complete [2, 13]: 0.9251

C/C(=C(\CCOP(=O)(O)O)SC(=O)c1ccccc1)N(C=O)Cc1cnc(C)nc1N [Benfotiamine]
Cholesterol-free media + simvastatin (0.04 μM) [1, 3]: 1.23
Complete Media [1, 4]: 1.076
Difference [1, 16]: −0.15
Cholesterol-free [2, 17]: 1.163
Complete ([2]; NCI-H292 cells, complete media): 0.7915
Difference [2, 20]: −0.37

CONC(=O)Nc1ccc(-c2sc3c(c2CN(C)C)c(=O)n(-c2ccc(OC)nn2)c(=O)n3Cc2c(F)cccc2F)cc1 [Relugolix]
Cholesterol-free media + simvastatin (0.04 μM) [1, 14]: 1.344
Complete Media [1, 15]: 1.077
Difference [1, 16]: −0.27
Difference [2, 21]: −0.64
Complete [2, 22]: 0.978

CC(C)NC[C@H](O)COc1cccc2ccccc12.Cl [(S)-(−)-Propranolol (hydrochloride)]
Cholesterol-free media + simvastatin (0.04 μM) [1, 8]: 1.665
Complete Media [1, 9]: 1.663
Difference [1, 10]: 0.00
Difference [2, 21]: −0.61
Cholesterol-free [2, 23]: 1.5
Complete [2, 22]: 0.8879

CC1(C)S[C@@H]2[C@H](NC(=O)[C@H](N)c3ccc(O)cc3)C(=O)N2[C@H]1C(=O)O [Amoxicillin (trihydrate)]
Cholesterol-free media + simvastatin (0.04 μM) [1, 3]: 0.7666
Complete Media [1, 4]: 1.02
Difference [1, 5]: 0.25
Cholesterol-free [2, 12]: 0.8623
Complete [2, 13]: 0.9771
Difference [2, 24]: 0.11

Cn1cnc2c(F)c(Nc3ccc(Br)cc3Cl)c(C(=O)NOCCO)cc21 [Selumetinib]
Cholesterol-free media + simvastatin (0.04 μM) [1, 14]: 0.7343
Complete Media [1, 15]: 0.4618
Difference [1, 16]: −0.27
Difference [2, 6]: −0.18
Cholesterol-free [2, 7]: 0.4744
Complete [2, 4]: 0.2899

COc1ccc(CCNCC(O)COc2cccc(C)c2)cc1OC (centres unmarked) [Bevantolol (hydrochloride)]
Cholesterol-free media + simvastatin (0.04 μM) [1, 14]: 1.404
Complete Media [1, 15]: 0.952
Difference [1, 16]: −0.45
Difference [2, 21]: −0.52
Cholesterol-free [2, 23]: 1.227
Complete [2, 22]: 0.7079

O=C(N/N=C/c1ccc([N+](=O)[O-])o1)c1ccc(O)cc1 [Nifuroxazide]
Cholesterol-free media + simvastatin (0.04 μM) [1, 18]: 1.161
Complete Media [1, 19]: 1.265
Difference [1, 5]: 0.10
Difference [2, 11]: −0.04
Cholesterol-free [2, 12]: 0.9553
Complete [2, 13]: 0.9139

CO/N=C(\C(=O)N[C@@H]1C(=O)N2C(C(=O)O)=C(CSc3nc(C)c(CC(=O)O)s3)CS[C@H]12)c1csc(N)n1 [Cefodizime]
Cholesterol-free media + simvastatin (0.04 μM) [1, 25]: 1.707
Complete Media [1, 26]: 1.539
Difference [1, 16]: −0.17
Difference [2, 11]: −0.06
Cholesterol-free [2, 12]: 0.9888
Complete [2, 13]: 0.9297

COc1cc(C(=O)NS(=O)(=O)c2ccccc2C)ccc1Cc1cn(C)c2ccc(NC(=O)OC3CCCC3)cc12 [Zafirlukast]
Cholesterol-free media + simvastatin (0.04 μM) [1, 3]: 1.598
Complete Media [1, 4]: 1.505
Difference [1, 16]: −0.09
Difference [2, 11]: 0.05
Cholesterol-free [2, 12]: 0.8473
Complete [2, 13]: 0.9001

COc1cc2c(cc1Cc1cccc(Cl)c1F)c(=O)c(C(=O)O)cn2[C@H](CO)C(C)C [Elvitegravir]
Cholesterol-free media + simvastatin (0.04 μM) [1, 3]: 1.032
Complete Media [1, 4]: 1.435
Difference [1, 5]: 0.40
Difference [2, 21]: −0.83
Cholesterol-free [2, 23]: 1.777
Complete [2, 22]: 0.9448

CO[C@@H]1[C@H](N(C)C(=O)c2ccccc2)C[C@H]2O[C@]1(C)n1c3ccccc3c3c4c(c5c6ccccc6n2c5c31)C(=O)NC4 [Midostaurin]
Cholesterol-free media + simvastatin (0.04 μM) [1, 3]: 0.6712
Complete Media [1, 4]: 0.5312
Difference [1, 16]: −0.14
Difference [2, 11]: 0.06
Cholesterol-free [2, 12]: 0.3336
Complete [2, 13]: 0.3958

C[C@@H]1C[C@H]2[C@@H]3CCC4=CC(=O)C=C[C@]4(C)[C@@]3(F)[C@@H](O)C[C@]2(C)[C@H]1C(=O)CO [Desoximetasone]
Cholesterol-free media + simvastatin (0.04 μM) [1, 8]: 0.8194
Complete Media [1, 9]: 0.8184
Difference [1, 10]: 0.00
Difference [2, 11]: −0.06
Cholesterol-free [2, 12]: 0.8359
Complete [2, 13]: 0.7716

Oc1cccc(-c2c3nc(c(-c4cccc(O)c4)c4ccc([nH]4)c(-c4cccc(O)c4)c4nc(c(-c5cccc(O)c5)c5ccc2[nH]5)CC4)C=C3)c1 [Temoporfin]
Cholesterol-free media + simvastatin (0.04 μM) [1, 3]: 0.6286
Complete Media [1, 4]: 0.9208
Difference [1, 5]: 0.29
Difference [2, 6]: −0.10
Cholesterol-free [2, 7]: 0.848
Complete [2, 4]: 0.7514

Cc1ccccc1OCC(O)CO (centres unmarked) [Mephenesin]
Cholesterol-free media + simvastatin (0.04 μM) [1, 3]: 1.225
Complete Media [1, 4]: 1.535
Difference [1, 5]: 0.31
Cholesterol-free [2, 12]: 0.8638
Complete [2, 13]: 1.459
Difference [2, 24]: 0.60

C[C@H]1C[C@H]2[C@@H]3CCC4=CC(=O)C=C[C@]4(C)[C@H]3C(=O)C[C@]2(C)[C@@]1(O)C(=O)CO [Meprednisone]
Cholesterol-free media + simvastatin (0.04 μM) [1, 25]: 1.224
Complete Media [1, 26]: 0.9766
Difference [1, 16]: −0.25
Cholesterol-free [2, 12]: 0.7649
Complete [2, 13]: 1.522
Difference [2, 24]: 0.76

CN(C)CCCN1c2ccccc2CCc2ccccc21 [Imipramine (hydrochloride)]
Cholesterol-free media + simvastatin (0.04 μM) [1, 3]: 0.9417
Complete Media [1, 4]: 0.8694
Difference [1, 16]: −0.07
Difference [2, 11]: −0.21
Cholesterol-free [2, 17]: 1.052
Complete ([2]; NCI-H292 cells, complete media): 0.8395

CN1CCC(=C2c3ccccc3CCn3c(C=O)cnc32)CC1 [Alcaftadine]
Cholesterol-free media + simvastatin (0.04 μM) [1]: 1.165
Complete Media [1]: 0.9908
Difference [1]: −0.17
Cholesterol-free [2]: 1.45
Complete [2]: 1.003
Difference [2]: −0.45

CC/C(=C(\c1ccccc1)c1ccc(OCCN(C)C)cc1)c1ccccc1 [Tamoxifen]
Cholesterol-free media + simvastatin (0.04 μM) [1, 3]: 0.7526
Complete Media [1, 4]: 1.084
Difference [1, 5]: 0.33
Difference [2, 11]: 0.05
Cholesterol-free [2, 12]: 0.6611
Complete [2, 13]: 0.7069

Cl.N[C@@H](CS)C(=O)O [L-Cysteine (hydrochloride)]
Cholesterol-free media + simvastatin (0.04 μM) [1, 25]: 1.122
Complete Media [1, 26]: 0.9187
Difference ([1]; complete media vs cholesterol-free media + simvastatin (0.04 μM), […]): −0.20
Difference ([2]; Complete minus Cholesterol-free, […]): −0.04
Cholesterol-free [2, 12]: 1.166
Complete [2, 13]: 1.124
